Results: US5763395A, “Stabilized lanthionine bacteriocin compositions” (Ambi Inc., priority 1995, dated 1998)
Values joined by “and” are separate entries in the source; they are usually repeats but may differ in a detail not shown here. Equal values may be shown once.

Assays:
[1] = Nisin stability in topical germicide formulations under stressed conditions (RPHPLC); details: for Residual nisin concentration as a percentage of the theoretical concentration: 5 days 40° C., pH 6, additive 1 mM (nisin = control)
From the text: i) Analytical reverse phase high pressure liquid chromatography (RPHPLC). The analyte (nisin) in solution is passed through a column of hydrophic beads to which the nisin tends to bind. The solution flowing through the column is then made progressively more hydrophobic by increasing acetonitrile concentration until it causes the nisin to be released from the beads and eluted from the column. The emergence of the nisin from the column is detected by measuring the absorbance of light at 210 nm by the effluent.
In order to expedite the execution of these experiments the formulations were subjected to "stressed" conditions, ie pH 6 and 40° C.; both intended to accelerate any degradation effects taking place. The stability of nisin in the formulations was evaluated by RPHPLC.
Formulations were prepared with nisin at 25 μg/ml and titrated to pH 6. […]

[2] = Commonly used antioxidants tested for protection of nisin in formulation; type: physicochemical; details: methods of Example 2
Protocol: In order to further analyze the nisin degradation associated with one particular surfactant/emulsifier, polysorbate, material was obtained from as many manufacturers as possible. Where possible, multiple production batches were obtained from each manufacturer. Other emulsifiers or surfactants believed to closely resemble polysorbate in their properties as well as dissimilar surfactants were also tested. An oral rinse formulation containing nisin was prepared using each of these compounds and, after incubation, samples were analyzed to evaluate nisin stability.
A number of commonly used antioxidants were tested for their ability to protect nisin in formulation using the methods described in Example 2. None of the compounds tested gave satisfactory protection of nisin.

[3] = Glycerol/sorbitol batches and chelating agents screened for effects on nisin stability in oral rinse formulations (RPHPLC); type: physicochemical
Protocol: i) Analytical reverse phase high pressure liquid chromatography (RPHPLC).
Formulations of nisin useful as oral rinses comprising EDTA and the humectant glycerol were also prepared and analyzed by RPHPLC.
Glycerol and sorbitol from a number of sources, and a number of alternative chelators, were screened (Tables 2 and 3).

[4] = T-MAZ 20 BATCH 348, 2 weeks at 40° C., nisin formulated at 25 μg/ml, label nisin = water control
[5] = T-MAZ 20 BATCH 357, 2 weeks at 40° C., nisin formulated at 25 μg/ml, label nisin = water control
[6] = T-MAZ 20 1%, 6 days at 40° C., initial nisin 25 μg/ml, label nisin = no methionine
[7] = T-MAZ 20 batch 348, EDTA 1 mM, nisin 25 μg/ml, samples jd6-35-H 49-52
[8] = T-MAZ 20 batch 348, citrate 0.1%, nisin 25 μg/ml, samples jd6-35-H 53-56
[9] = T-MAZ 20 batch 348, citrate 0.3%, nisin 25 μg/ml, samples jd6-35-H 57-60
[10] = T-MAZ 20 batch 348, citrate 1.0%, nisin 25 μg/ml, samples jd6-35-H 61-64
[11] = T-MAZ 20 batch 357, EDTA 1 mM, nisin 25 μg/ml, samples jd6-35-H 33-36
[12] = T-MAZ 20 batch 357, citrate 0.1%, nisin 25 μg/ml, samples jd6-35-H 37-40
[13] = T-MAZ 20 batch 357, citrate 0.3%, nisin 25 μg/ml, samples jd6-35-H 41-44
[14] = T-MAZ 20 batch 357, citrate 1.0%, nisin 25 μg/ml, samples jd6-35-H 45-48

## N[C@@H](CSSC[C@H](N)C(=O)O)C(=O)O [cystine]
[1]; [4]
  Residual nisin concentration: 9.0 µg/mL
[1]; [5]
  Residual nisin concentration: 11.1 µg/mL

## COC(=O)C(N)CCSC (racemic) [DL-methionine methyl ester]
[1]; [6]
  Residual nisin concentration: 21.9 µg/mL and 20.8 µg/mL

## N[C@@H](CS)C(=O)O [CySH, cysteine]
[1]; [7]
  Residual nisin concentration as a percentage of the theoretical concentration: 51%
[1]; [8]
  Residual nisin concentration as a percentage of the theoretical concentration: 36%
[1]; [9]
  Residual nisin concentration as a percentage of the theoretical concentration: 29%
[1]; [10]
  Residual nisin concentration as a percentage of the theoretical concentration: 33%
[1]; [11]
  Residual nisin concentration as a percentage of the theoretical concentration: 85%
[1]; [12]
  Residual nisin concentration as a percentage of the theoretical concentration: 29%
[1]; [13]
  Residual nisin concentration as a percentage of the theoretical concentration: 36%
[1]; [14]
  Residual nisin concentration as a percentage of the theoretical concentration: 31%

## O=C1O[C@H]([C@@H](O)CO)C(O)=C1O [ascorbate, ascorbic acid]
[2]
  Protection of nisin in formulation by antioxidants, in words: aggravated the stability problem

## CS(=O)(=O)CCC(N)C(=O)O (racemic) [DL-methionine sulfone]
[1]; [6]
  Residual nisin concentration: 8.6 µg/mL

## C1CSCN1 [thizaolidine, thiazolidine]
[1]; [4]
  Residual nisin concentration: 14.9 µg/mL
[1]; [5]
  Residual nisin concentration: 17.3 µg/mL
[1]; nisin 25 μg/ml, T-MAZ 20, propyleneglycol, 1-propanol, EDTA or citrate, pH 6, 40° C.
  Stabilization of nisin from degradation by sulfur-containing compounds, in words: To a lesser degree, nisin was also stabilized

## NCCCC[C@H](N)C(=O)O [Lys, lysine]
[1]; [7]
  Residual nisin concentration as a percentage of the theoretical concentration: 56%
[1]; [8]
  Residual nisin concentration as a percentage of the theoretical concentration: 45%
[1]; [9]
  Residual nisin concentration as a percentage of the theoretical concentration: 47%
[1]; [10]
  Residual nisin concentration as a percentage of the theoretical concentration: 49%
[1]; [11]
  Residual nisin concentration as a percentage of the theoretical concentration: 80%
[1]; [12]
  Residual nisin concentration as a percentage of the theoretical concentration: 71%
[1]; [13]
  Residual nisin concentration as a percentage of the theoretical concentration: 71%
[1]; [14]
  Residual nisin concentration as a percentage of the theoretical concentration: 71%

## CSCC[C@H](N)C(=O)O [L-methionine]
[1]; [6]
  Residual nisin concentration: 19.9 µg/mL

## CSCCC(O)C(=O)O (racemic) [MHA, 2-hydroxy-4-(methylthio)butanoic acid]
[1]; T-MAZ 20 1%, 6 days at 40° C., initial nisin 25 μg/ml, label nisin = no methionine, listed as methionine hydroxy analog (MHA Novus)
  Residual nisin concentration: 19.8 µg/mL
[1]; T-MAZ 20 1%, 6 days at 40° C., initial nisin 25 μg/ml, label nisin = no methionine, listed as methionine hydroxy analog (Sigma)
  Residual nisin concentration: 18.1 µg/mL
[1]; [4]
  Residual nisin concentration: 23.4 µg/mL
[1]; [5]
  Residual nisin concentration: 22.5 µg/mL

## O=S([O-])[O-].[Na+].[Na+] [sodium sulfite]
[2]
  Protection of nisin in formulation by antioxidants, in words: aggravated the stability problem

## O=C(O)CC(O)(CC(=O)O)C(=O)O [citrate]
[3]
  Effect of humectant (glycerol, sorbitol) and chelating agent on nisin stability, in words: superior to EDTA

## N[C@@H](CSC[C@H](N)C(=O)O)C(=O)O [lanthionine]
[1]; [4]
  Residual nisin concentration: 10.7 µg/mL
[1]; [5]
  Residual nisin concentration: 18.2 µg/mL

## N[C@@H](CS(=O)(=O)O)C(=O)O [cysteic acid]
[1]; [4]
  Residual nisin concentration: 9.6 µg/mL
[1]; [5]
  Residual nisin concentration: 19.5 µg/mL

## O[C@H](CS)[C@H](O)CS (racemic) [dithiothreitol]
[2]
  Protection of nisin in formulation by antioxidants, in words: aggravated the stability problem

## CSCC[C@H](N)C(=O)O [methionine]
[1]; [4]
  Residual nisin concentration: 23.3 µg/mL
[1]; [5]
  Residual nisin concentration: 23.2 µg/mL
[1]; [7]
  Residual nisin concentration as a percentage of the theoretical concentration: 80%
[1]; [8]
  Residual nisin concentration as a percentage of the theoretical concentration: 76%
[1]; [9]
  Residual nisin concentration as a percentage of the theoretical concentration: 73%
[1]; [10]
  Residual nisin concentration as a percentage of the theoretical concentration: 73%
[1]; [11]
  Residual nisin concentration as a percentage of the theoretical concentration: 84%
[1]; [12]
  Residual nisin concentration as a percentage of the theoretical concentration: 75%
[1]; [13]
  Residual nisin concentration as a percentage of the theoretical concentration: 76%
[1]; [14]
  Residual nisin concentration as a percentage of the theoretical concentration: 73%

## CSCCC(N)C(=O)O (racemic) [DL-methionine]
[1]; [6]
  Residual nisin concentration: 19.7 µg/mL

## C[S+]([O-])CCC(N)C(=O)O (racemic) [DL-methionine sulfoxide]
[1]; [6]
  Residual nisin concentration: 8.6 µg/mL
